Experimental data published in patent US20230381321A1, “CAMPTOTHECIN CONJUGATES” (priority 2022, published 2023).
Where two headings read alike, the source gives them in different places.

Assays:
Type in all cases: cell-based
[1] = In vitro potency (CellTiter-Glo, 96 h) on Ls174T; conditions: Homo sapiens, LS174T, read-out: Ls174T IC50
Method: (§1) In vitro potency was assessed on multiple cancer cell lines. All cell lines were authenticated by STR profiling at IDEXX Bioresearch and cultured for no more than 2 months after resuscitation. Cells cultured in log-phase growth were seeded for 24 hours in 96-well plates containing […] RPMI 1640 supplemented with 20% FBS. Serial dilutions of antibody-drug conjugates in cell culture media were prepared at 4x working concentrations, and 50 μL of each dilution was added to the 96-well plates. Following addition of test articles, cells were incubated with test articles for 4 days at […]. After 96 hours, growth inhibition was assessed by CellTiterGlo® (Promega, Madison, WI) and luminescence was measured on a plate reader.
(§2) Cell viability was determined by CellTiter-Glo staining after 96h exposure to ADC. ND=Not Determined. In the following tables, “Ex_” refers to a drug linker number. For example, “Ag4-Ex_4a” refers to a conjugate of an Ag4 antibody with drug linker 4a.

[2] = test system: pancreatic cancer cells (BxPC3); test: In vitro potency (CellTiter-Glo, 96 h) on BxPC3; conditions: Homo sapiens, BXPC-3, 96 h, read-out: BxPC3 IC50
Method: as §1, §2

[3] = test system: acute myeloid leukemia cells (MOLM-13); test: In vitro potency (CellTiter-Glo, 96 h) on MOLM-13; conditions: Homo sapiens, MOLM-13, 96 h, read-out: MOLM-13 IC50
Method: as §1, §2

[4] = test system: anaplastic large cell lymphoma cells (DEL); test: In vitro potency (CellTiter-Glo, 96 h) on DEL; conditions: 96 h, read-out: DEL IC50
Method: as §1, §2

[5] = test system: renal carcinoma cells (786-O); test: In vitro potency (CellTiter-Glo, 96 h) on 786-O; conditions: Homo sapiens, 786-0, 96 h, read-out: 786-O IC50
Method: as §1, §2

[6] = test system: anaplastic large cell lymphoma cells (DELBVR); test: In vitro potency (CellTiter-Glo, 96 h) on DELBVR; conditions: 96 h, read-out: DELBVR IC50
Method: as §1, §2

[7] = test system: breast cancer cells (MDA-MB-231); test: In vitro potency (CellTiter-Glo, 96 h) on MDA-MB-231; conditions: Homo sapiens, MDA-MB-231, 96 h, read-out: MDAMB 231 IC50
Method: as §1, §2

[8] = test system: Hodgkin's lymphoma cells (L540cy); test: In vitro potency (CellTiter-Glo, 96 h) on L540cy; conditions: L540cy, 96 h, read-out: L540cy IC50
Method: as §1, §2

[9] = test system: anaplastic large cell lymphoma cells (Karpas299); test: In vitro potency (CellTiter-Glo, 96 h) on Karpas299; conditions: Homo sapiens, KARPAS-299, 96 h, read-out: Karpas299 IC50
Method: as §1, §2

[10] = test system: B-lymphocyte cancer cells (SU-DHL4); test: In vitro potency (CellTiter-Glo, 96 h) on SU-DHL4; conditions: Homo sapiens, SU-DHL-4, 96 h, read-out: SU-DHL-4 IC50
Method: as §1, §2

[11] = CPT free drugs, CellTiter-Glo after 96 h exposure

SMILES	IC50 ([1]; 96 h)	IC50 [2]	IC50 [3]	IC50 [4]	IC50 [5]	IC50 [6]	IC50 [7]	IC50 [8]	IC50 [9]	IC50 [10]	IC50 [1, 11]	IC50 [2, 11]	IC50 [3, 11]	IC50 [4, 11]	IC50 [5, 11]	IC50 [6, 11]	IC50 [7, 11]	IC50 [8, 11]	IC50 [9, 11]	IC50 [10, 11]
CC[C@@]1(O)C(=O)OCc2c1cc1n(c2=O)Cc2c-1nc1cc3c(cc1c2CNCCCNC)OCO3 [Compound 8a]	48 nM	15 nM	3 nM	1 nM	11 nM	2 nM	22 nM	5 nM	8 nM	4 nM										
CC[C@@]1(O)C(=O)OCc2c1cc1n(c2=O)Cc2c-1nc1cc3c(cc1c2CNC[C@@H](O)CN1CCCCC1)OCO3 [Compound 7z]	79 nM	127 nM	143 nM	17 nM	123 nM	16 nM	306 nM	48 nM	150 nM	39 nM										
CC[C@@]1(O)C(=O)OCc2c1cc1n(c2=O)Cc2c-1nc1cc(F)c(C)c(Cl)c1c2CNC(=O)CN [Compound 13a]	44 nM	5 nM	2 nM	0.3 nM	6 nM	1 nM	5 nM	1 nM	1 nM	1 nM										
CC[C@@]1(O)C(=O)OCc2c1cc1n(c2=O)Cc2c-1nc1cc3c(cc1c2CNC(C)=O)OCO3 [Compound 12b]	22 nM	11 nM	3 nM		12 nM	1 nM	28 nM	4 nM	8 nM	1 nM										
CC[C@@]1(O)C(=O)OCc2c1cc1n(c2=O)Cc2c-1nc1cc3c(cc1c2CNC(C)=O)CCO3 [Compound 12]	19 nM	12 nM	5 nM	1 nM	13 nM	1 nM	27 nM	5 nM	24 nM	1 nM										
CC[C@@]1(O)C(=O)OCc2c1cc1n(c2=O)Cc2c-1nc1cc3c(cc1c2CNC1CCN(C)CC1)OCO3 [Compound 7w]	16 nM	13 nM	26 nM	2 nM	15 nM	2 nM	26 nM	6 nM	8 nM	6 nM										
CC[C@@]1(O)C(=O)OCc2c1cc1n(c2=O)Cc2c-1nc1cc3c(cc1c2CNCCCN1CCNCC1)OCO3 [Compound 8d]	19 nM	14 nM	37 nM	2 nM	15 nM	2 nM	25 nM	6 nM	9 nM	6 nM										
CC[C@@]1(O)C(=O)OCc2c1cc1n(c2=O)Cc2c-1nc1cc(F)c(C)c(Cl)c1c2CNC(C)=O [Compound 12a]	7 nM	2 nM	1 nM	0.2 nM	1 nM	0.2 nM	2 nM	0.4 nM	1 nM	0.4 nM										
CC[C@@]1(O)C(=O)OCc2c1cc1n(c2=O)Cc2c-1nc1cc3c(cc1c2CN1CCN(CCN)CC1)OCO3 [Compound 8c]	32 nM	14 nM	69 nM	3 nM	27 nM	4 nM	57 nM	14 nM	28 nM	7 nM										
CC[C@@]1(O)C(=O)OCc2c1cc1n(c2=O)Cc2c-1nc1cc3c(cc1c2CNCCCN1CCN(C)CC1)OCO3 [Compound 7h]	40 nM	43 nM	93 nM	5 nM	44 nM	6 nM	67 nM	23 nM	57 nM	21 nM										
C/C=C/c1c(C)c(F)cc2nc3c(c(CN)c12)Cn1c-3cc2c(c1=O)COC(=O)[C@]2(O)CC [Compound 2aj]											5 nM	3 nM	1 nM	0.3 nM	2 nM	0.3 nM	5 nM	1 nM	2 nM	1 nM
CC[C@@]1(O)C(=O)OCc2c1cc1n(c2=O)Cc2c-1nc1cc3c(cc1c2CN1CCC(N)CC1)OCO3 [Compound 8f]	236 nM	166 nM	32 nM	14 nM	267 nM	30 nM	207 nM	84 nM	110 nM	32 nM										
CC[C@@]1(O)C(=O)OCc2c1cc1n(c2=O)Cc2c-1nc1cc3c(cc1c2CNCC(O)CN1CCOCC1)OCO3 (stereo partly drawn) [Compound 7i]	110 nM	57 nM	183 nM	9 nM	118 nM	17 nM	183 nM	48 nM	84 nM	32 nM										
C=C(C)c1c(C)c(F)cc2nc3c(c(CN)c12)Cn1c-3cc2c(c1=O)COC(=O)[C@]2(O)CC [Compound 2al]	11 nM	7 nM	2 nM	1 nM	4 nM	1 nM	9 nM	2 nM	4 nM	1 nM										
CC[C@@]1(O)C(=O)OCc2c1cc1n(c2=O)Cc2c-1nc1cc3c(cc1c2CN(C)CCCN)OCO3 [Compound 8, (5S)-14-[[3-aminopropyl(methyl)amino]methyl]-5-ethyl-5-hydroxy-7,18,20-trioxa-11,24-diazahexacyclo[11.11.0.02,11.04,9.015,23.017,21]tetracosa-1(13),2,4(9),14,16,21,23-heptaene-6,10-dione;2,2,2-trifluoroacetic acid]											131 nM	52 nM	47 nM	8 nM	113 nM	16 nM	125 nM	44 nM	54 nM	15 nM
CC[C@@]1(O)C(=O)OCc2c1cc1n(c2=O)Cc2c-1nc1cc(F)c(C)c3c1c2[C@@H](NC(=O)CN)CC3 [Compound 13b]											58 nM	21 nM	23 nM	1 nM	27 nM	4 nM	30 nM	6 nM	11 nM	2 nM
CC[C@@]1(O)C(=O)OCc2c1cc1n(c2=O)Cc2c-1nc1cc(F)c(C)c(/C=C/c3ccc(OC)cc3)c1c2CN [Compound 2ai]											64 nM	57 nM	34 nM	6 nM	64 nM	5 nM	79 nM	47 nM	47 nM	13 nM
CC[C@@]1(O)C(=O)OCc2c1cc1n(c2=O)Cc2c-1nc1cc(F)c(F)c(F)c1c2CN [Compound 2ap]											4 nM	14 nM	5 nM	1 nM	8 nM	1 nM	13 nM	2 nM	5 nM	2 nM
CC[C@@]1(O)C(=O)OCc2c1cc1n(c2=O)Cc2c-1nc1cc3c(cc1c2CN)COC3 [Compound 2ak]			129 nM																	
